The values that follow come from patent publication US20220089575A1, “FARNESOID X RECEPTOR AGONISTS AND USES THEREOF” (Metacrine, Inc., priority 2017, published 2022).

The experiment addresses T1, hFXR (Homo sapiens, UniProt Q96RI1).
T1 construct: expressed in transfected cells; host or cells: CV-1 cells
T1 sequence (Q96RI1 1-486): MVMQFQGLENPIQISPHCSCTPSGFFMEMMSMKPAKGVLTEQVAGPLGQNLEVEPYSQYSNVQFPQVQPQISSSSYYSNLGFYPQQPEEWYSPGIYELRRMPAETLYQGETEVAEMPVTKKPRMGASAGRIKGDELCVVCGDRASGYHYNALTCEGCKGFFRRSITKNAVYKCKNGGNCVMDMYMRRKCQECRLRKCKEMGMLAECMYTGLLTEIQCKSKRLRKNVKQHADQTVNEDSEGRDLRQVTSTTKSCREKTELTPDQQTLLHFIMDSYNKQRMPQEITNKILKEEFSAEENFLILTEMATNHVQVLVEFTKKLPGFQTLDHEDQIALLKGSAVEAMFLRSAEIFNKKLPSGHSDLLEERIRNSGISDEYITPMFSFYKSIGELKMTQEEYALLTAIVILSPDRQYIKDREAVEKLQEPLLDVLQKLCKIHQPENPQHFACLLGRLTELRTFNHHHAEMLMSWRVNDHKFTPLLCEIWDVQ
T1 sequence (P19793 1-462 partner): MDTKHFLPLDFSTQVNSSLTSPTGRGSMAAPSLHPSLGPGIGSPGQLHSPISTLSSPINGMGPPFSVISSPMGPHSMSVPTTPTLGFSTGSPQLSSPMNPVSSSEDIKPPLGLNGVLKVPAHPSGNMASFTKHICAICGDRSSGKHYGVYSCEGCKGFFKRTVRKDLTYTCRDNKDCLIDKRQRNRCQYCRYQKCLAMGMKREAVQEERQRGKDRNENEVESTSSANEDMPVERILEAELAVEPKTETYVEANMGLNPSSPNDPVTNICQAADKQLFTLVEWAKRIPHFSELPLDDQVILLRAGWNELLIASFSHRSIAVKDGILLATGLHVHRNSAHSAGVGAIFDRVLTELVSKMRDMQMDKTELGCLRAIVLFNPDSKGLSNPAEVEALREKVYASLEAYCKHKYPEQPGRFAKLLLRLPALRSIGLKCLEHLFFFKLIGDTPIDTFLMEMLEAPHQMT
Description: In Vitro FXR Assay (TK): TK-ECRE-luc reporter in transfected CV-1 cells. The conditions noted are these: 18 hrs, luminescence, maximum efficacy of <25% of the Fexarmine control classified as '+'. The class given is cell-based. The method, boiled down: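 Luciferase luminescence read-out from lysed CV-1 cells transiently co-expressing hFXR and hRXR with a TK-ECRE-luc reporter (pCMX-YFP co-transfected). Compound exposure lasted 18 h at 37 °C, 5% CO2, in medium containing charcoal super-stripped serum.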

pEC50: −log10 of the molar value.

As a reminder, the pEC50 is the EC50 on a negative log10 scale, so that one unit is a factor of ten. Low values mean a large EC50, high ones a small EC50. In the case of `CCCOC(=O)[C@H]1CC[C@H](C(=O)N(C[C@H]2CC[C@H](c3ccc(OC)c(C)n3)CC2)c2cc(-c3cnn(C4CC4)c3)ccn2)CC1` [Compound 22.06, trans-Propyl 4-((4-(1-cyclopropyl-1H-pyrazol-4-yl)pyridin-2-yl)((trans-4-(5-methoxy-6-methylpyridin-2-yl)cyclohexyl)methyl)carbamoyl) cyclohexanecarboxylate], the pEC50 was 6.00 to 6.60.
In turn, `CCNC(=O)O[C@H]1CC[C@H](C(=O)N(C[C@H]2CC[C@H](c3ccc(OC)c(C)c3)CC2)c2cccc(-c3cnn(C4CC4)c3)c2)CC1` [Compound 3.01, trans-4-((3-(1-Cyclopropyl-1H-pyrazol-4-yl)phenyl)((trans-4-(4-methoxy-3-methylphenyl)cyclohexyl)methyl)carbamoyl)cyclohexyl ethylcarbamate] gave a pEC50 of at least 6.60.
The compound `COc1ccc([C@H]2CC[C@H](CN(c3cccc(-c4cnn(C(C)C)c4)c3)C(=O)[C@H]3CC[C@H](OC(=O)N4CC(N(C)C)C4)CC3)CC2)nc1C` [Compound 7.53, trans-4-((3-(1-Isopropyl-1H-pyrazol-4-yl)phenyl)((trans-4-(5-methoxy-6-methylpyridin-2-yl)cyclohexyl)methyl)carbamoyl)cyclohexyl 3-(dimethylamino)azetidine-1-carboxylate] showed a pEC50 of at least 6.60.
As for `COc1ccc([C@H]2CC[C@H](CN(c3cc(-c4coc(C(C)C)n4)ccn3)C(=O)[C@H]3CC[C@H](OC(=O)N4CC(S(C)(=O)=O)C4)CC3)CC2)nc1C` [Compound 6.75, trans-4-((4-(2-Isopropyloxazol-4-yl)pyridine-2-yl)((trans-4-(5-methoxy-6-methylpyridin-2-yl)cyclohexyl)methyl)carbamoyl)cyclohexyl 3-(methylsulfonyl)azetidine-1-carboxylate], the figure is at least 6.60.
As for `CCCC(=O)N[C@H]1CC[C@H](C(=O)N(C[C@H]2CC[C@H](c3ccc(OC)c(C)c3)CC2)c2cccc(-c3cnc(C4CC4)s3)c2)CC1` [Compound 25.16, trans-4-Butyramido-N-(3-(2-cyclopropylthiazol-5-yl)phenyl)-N-((trans-4-(4-methoxy-3-methylphenyl)cyclohexyl)methyl) cyclo hexanecarboxamide], the figure is at least 6.60.
In the case of `COc1ccc([C@H]2CC[C@H](CN(c3cccc(-c4cnn(C5CC5)c4)c3)C(=O)[C@H]3CC[C@H](OC(=O)N(C)C)CC3)CC2)cc1C` [Compound 5.22, trans-4-((3-(1-Cyclopropyl-1H-pyrazol-4-yl)phenyl)((trans-4-(4-methoxy-3-methylphenyl)cyclohexyl)methyl)carbamoyl)cyclohexyl dimethylcarbamate] it was at least 6.60; in that of `CCC1CN(C(=O)O[C@H]2CC[C@H](C(=O)N(C[C@H]3CC[C@H](c4ccc(OC)c(C)n4)CC3)c3cc(-c4cnn(C(C)C)c4)ccn3)CC2)C1` [Compound 7.54, trans-4-((4-(1-Isopropyl-1H-pyrazol-4-yl)pyridin-2-yl)((trans-4-(5-methoxy-6-methylpyridin-2-yl)cyclohexyl)methyl)carbamoyl)cyclohexyl 3-ethylazetidine-1-carboxylate], at least 6.60.
For the compound `COc1ccc([C@H]2CC[C@H](CN(c3cccc(-c4cnn(C5CC5)c4)c3)C(=O)[C@H]3CC[C@H](OC(=O)N4CC(C[S+](C)[O-])C4)CC3)CC2)cc1C` (stereo partly drawn) [Compound 8, trans-4-((3-(1-Cyclopropyl-1H-pyrazol-4-yl)phenyl)((trans-4-(4-methoxy-3-methylphenyl)cyclohexyl)methyl)carbamoyl)cyclohexyl 3-((methylsulfinyl)methyl)azetidine-1-carboxylate], the pEC50 is at least 6.60.
In the case of `COc1ccc([C@H]2CC[C@H](CN(c3cc(-c4cnn(C(C)C)c4)ccn3)C(=O)[C@H]3CC[C@H](OC(=O)NCCO)CC3)CC2)cc1C#N` [Compound 6.22, trans-4-(((trans-4-(3-Cyano-4-methoxyphenyl)cyclohexyl)methyl)(4-(1-isopropyl-1H-pyrazol-4-yl)pyridin-2-yl)carbamoyl)cyclohexyl (2-hydroxyethyl)carbamate] it was at least 6.60; in that of `COc1ccc([C@H]2CC[C@H](CN(c3cccc(-c4cnn(C5CC5)c4)c3)C(=O)[C@H]3CC[C@H](C(=O)O)CC3)CC2)cc1C#N` [Compound 17.22, trans-4-(((trans-4-(3-Cyano-4-methoxyphenyl)cyclohexyl)methyl)(3-(1-cyclopropyl-1H-pyrazol-4-yl)phenyl)carbamoyl)cyclohexanecarboxylic acid], at least 6.60; in that of `COc1ccc([C@H]2CC[C@H](CN(c3cc(-c4coc(C5CC5)n4)ccn3)C(=O)[C@H]3CC[C@H](OC(=O)NCC(O)C(C)C)CC3)CC2)nc1C` (stereo partly drawn) [Compound 6.89, trans-4-((4-(2-Cyclopropyloxazol-4-yl)pyridin-2-yl)((trans-4-(5-methoxy-6-methylpyridin-2-yl)cyclohexyl)methyl)carbamoyl)cyclohexyl (2-hydroxy-3-methylbutyl)carbamate], at least 6.60.
As to `COc1ncc(-c2cccc(N(C[C@H]3CC[C@H](c4ccc(OC)c(C)c4)CC3)C(=O)[C@H]3CC[C@H](OCc4ccccc4)CC3)c2)s1` [Compound 18.11, trans-4-(Benzyloxy)-N-((trans-4-(4-methoxy-3-methylphenyl)cyclohexyl)methyl)-N-(3-(2-methoxythiazol-5-yl)phenyl)cyclohexanecarboxamide], the pEC50 was at most 6.00.
Consider `C#CC1CN(C(=O)O[C@H]2CC[C@H](C(=O)N(C[C@H]3CC[C@H](c4ccc(OC)c(C)n4)CC3)c3cc(-c4coc(C5CC5)n4)ccn3)CC2)C1` [Compound 7.98, trans-4-((4-(2-Cyclopropyloxazol-4-yl)pyridine-2-yl)((trans-4-(5-methoxy-6-methylpyridin-2-yl)cyclohexyl)methyl)carbamoyl)cyclohexyl 3-ethynylazetidine-1-carboxylate], for which the pEC50 was at least 6.60.
In the case of `COc1ccc([C@H]2CC[C@H](CN(c3cccc(-c4cnn(C5CC5)c4)c3)C(=O)[C@H]3CC[C@H](C(=O)OCC(C)C)CC3)CC2)cc1C` [Compound 22.04, trans-Isobutyl 4-((3-(1-cyclopropyl-1H-pyrazol-4-yl)phenyl)((trans-4-(4-methoxy-3-methylphenyl)cyclohexyl)methyl)carbamoyl) cyclohexanecarboxylate] it was at least 6.60; in that of `COc1ccc(CO[C@H]2CC[C@H](C(=O)N(C[C@H]3CC[C@H](c4ccc(OC)c(C)c4)CC3)c3cccc(-c4cnc(OC)s4)c3)CC2)cc1` [Compound 18.12, trans-N-((trans-4-(4-Methoxy-3-methylphenyl)cyclohexyl)methyl)-4-((4-methoxybenzyl)oxy)-N-(3-(2-methoxythiazol-5-yl)phenyl) cyclohexanecarboxamide], at most 6.00; in that of `COC(=O)[C@H]1CC[C@H](C(=O)N(C[C@H]2CC[C@H](c3ccc(N(C)C)nc3)CC2)c2cccc(-c3cnc(C4CC4)s3)c2)CC1` [Compound 18.08, trans-Methyl 4-((3-(2-cyclopropylthiazol-5-yl)phenyl)((trans-4-(6-(dimethylamino)pyridin-3-yl)cyclohexyl)methyl)carbamoyl) cyclohexanecarboxylate], at least 6.60.
As for `COc1ccc([C@H]2CC[C@H](CN(c3cccc(-c4coc(C5CC5)n4)c3)C(=O)[C@H]3CC[C@H](OC(=O)N4CC(O)C4)CC3)CC2)nc1C` [Compound 7.66, trans-4-((3-(2-Cyclopropyloxazol-4-yl)phenyl)((trans-4-(5-methoxy-6-methylpyridin-2-yl)cyclohexyl)methyl)carbamoyl)cyclohexyl 3-hydroxyazetidine-1-carboxylate], the figure is at least 6.60.
As for `COc1ccc([C@H]2CC[C@H](CN(c3cc(-c4cnc(C5CC5)s4)ccn3)C(=O)[C@H]3CC[C@H](CC(=O)O)CC3)CC2)cc1C` [Compound 20.02, 2-(trans-4-((4-(2-Cyclopropylthiazol-5-yl)pyridin-2-yl)((trans-4-(4-methoxy-3-methylphenyl)cyclohexyl)methyl)carbamoyl)cyclohexyl)acetic acid], the figure is at least 6.60; as for `COc1ccc([C@H]2CC[C@H](CN(c3cc(-c4coc(C5CC5)n4)ccn3)C(=O)[C@H]3CC[C@H](CC(=O)O)CC3)CC2)nc1C` [Compound 21.07, 2-(trans-4-((4-(2-Cyclopropyloxazol-4-yl)pyridin-2-yl)((trans-4-(5-methoxy-6-methylpyridin-2-yl)cyclohexyl)methyl)carbamoyl)cyclohexyl) acetic acid], at least 6.60.
